These results are taken from EP1298214A2, “Plant thioesterases” (Calgene LLC, priority 1990, dated 1991).

One may read the inhibition as the drop in the measured response relative to a control, in per cent.

For experiment [1], the target named is T1, Bay C12-preferring acyl-ACP thioesterase (Umbellularia californica, UniProt Q41635).
T1 sequence (Q41635 84-382): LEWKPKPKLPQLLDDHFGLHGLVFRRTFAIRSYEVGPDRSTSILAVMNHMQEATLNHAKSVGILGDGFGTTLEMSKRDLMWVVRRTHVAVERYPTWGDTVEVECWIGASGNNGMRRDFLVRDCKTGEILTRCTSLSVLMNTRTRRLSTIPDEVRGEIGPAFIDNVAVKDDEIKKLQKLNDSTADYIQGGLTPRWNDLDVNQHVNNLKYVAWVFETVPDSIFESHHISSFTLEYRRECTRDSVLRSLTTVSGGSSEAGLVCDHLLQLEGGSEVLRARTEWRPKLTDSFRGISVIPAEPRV
The experiment is described as follows: Substrate hydrolysis (ACP versus CoA) by peak gradient-eluted fraction of the ACP column. In kind it is biochemical. Also on record: This comprises the source tissue for enzyme extraction; from tissue; host or cells: cotyledons of immature Umbellularia californica seeds. The conditions noted are these: cpm of ether-extractable product. The protocol:
(§1) To assay for C12 thioesterase activity the following mixture is incubated at 30° for 30 min: "buffer" comprising 7mM KH2PO4-KOH pH 8, 20% v/v glycerol, 1mM dithiothreitol (DTT), 0.1% v/v Triton X100; sample to be tested for activity in the same or similar buffer as the "extraction buffer" described in Example 2; and 5µl of ^14C-radiolabeled lauroyl-ACP substrate for a total volume of 100µl and final lauroyl-ACP concentration of 0.5µM. Lauroyl-ACP substrate is prepared according to the method of Rock et al (Methods in Enzymology (1981) 72:397-403), using ACP prepared from Escherichia coli by the method of Rock and Cronan (Methods in Enzymology (1981) 71:341-351). The laurate is radiolabeled in the carboxylate group at a specific radioactivity of 50-60µCi/µmol.
(§2) The reaction is stopped by adding 0.5ml cold (0°) 10% v/v acetic acid. […] After settling for a few minutes the upper ether layer is transferred to 5ml scintillation fluid for determination of radioactivity by liquid scintillation spectrometry. Additional ether extractions may be performed to recover remaining traces of the reaction product for more accurate quantitation of the enzyme activity if desired. The amount of ether-extracted radioactivity is a direct measure of C12-preferring acyl-ACP thioesterase activity, provided the amount of enzyme is not sufficient to hydrolyze more than about 25% of the substrate. […]

Experiment [2] concerns material which fails to bind the ACP column (Lauroyl-CoA hydrolysis activity). Nature of the experiment: Substrate hydrolysis (ACP versus CoA) by peak unbound fraction of the ACP column. It counts as biochemical, Umbellularia californica. The conditions noted are these: Flow-through (nonbinding) fraction; cpm of ether-extractable product. As for the experimental part:
as §1, §2

For experiment [3], the system named is Bay seeds extractable C12-preferring acyl-ACP thioesterase and lauroyl-CoA hydrolysis activity. The experiment is described as follows: Extractable hydrolysis activity at two stages of Bay seed development. It counts as biochemical, Umbellularia californica. The conditions noted are these: cpm ether-extractable radioactivity. The protocol: as §1
(§3) The reaction is stopped by adding 0.5ml cold (0°) 10% v/v acetic acid. The fatty acid product of the hydrolytic enzyme action is extracted away from the unhydrolyzed substrate by adding 1ml diethyl ether and mixing vigorously. After settling for a few minutes the upper ether layer is transferred to 5ml scintillation fluid for determination of radioactivity by liquid scintillation spectrometry. Additional ether extractions may be performed to recover remaining traces of the reaction product for more accurate quantitation of the enzyme activity if desired. The amount of ether-extracted radioactivity is a direct measure of C12-preferring acyl-ACP thioesterase activity, provided the amount of enzyme is not sufficient to hydrolyze more than about 25% of the substrate. With greater activity than this the relationship between radioactivity in the ether layer and the quantity of enzyme becomes markedly nonlinear. The enzyme preparation must then be diluted appropriately to bring the activity into the linear range of the assay.
Further evidence that the C12-preferring acyl-ACP thioesterase is involved in the biosynthesis of laurate groups that predominate in the Bay seeds comes from a comparison of the extractable activity of the enzyme at two different stages of seed development. As shown in the following table, Table 5, very young seeds, which contain only long-chain fatty acids and insignificant amounts of laurate, yield much less C12-preferring ACP thioesterase than older seeds that have accumulated significant amounts of laurate. Thus it appears that significant activity of this enzyme is only present when the seeds are accumulating laurate. Additionally, there appears to be much less difference in lauroyl-CoA hydrolysis activity, consistent with their being different enzymes as discussed above in Example 5.

Experiment [4] has as its target T2, Bay cotyledon C12-preferring acyl-ACP thioesterase (Umbellularia californica, UniProt Q41635).
T2 construct: This comprises the source tissue for enzyme extraction; from tissue; host or cells: cotyledons of immature Umbellularia californica seeds
T2 sequence (Q41635 84-382): T1 sequence (Q41635 84-382)
The experiment is described as follows: C12-preferring acyl-ACP thioesterase inhibitor studies, Bay ammonium sulfate fraction. It counts as biochemical. The note with it: for inhibition at 500 µM / inhibition at 5000 µM: read-out: Percent Inhibition; for sensitivity of the thioesterase to the thiol reagent (in words): 5mM, preliminary inhibitor studies. The protocol: as §1, §3
The crude extract is subjected to ammonium sulfate fractionation as follows. Sufficient solid ammonium sulfate is gradually added with stirring over 30 min to achieve 70% saturation. The preparation is then stirred for a further 30 min. After centrifuging as described above, the pelleted material is resuspended in extraction buffer (2ml/g original tissue weight) and stirred for 10 min until dissolved. Ammonium sulfate is then added as before, but this time only sufficient to achieve 50% saturation. After centrifuging as before, the supernatant fraction is discarded. The pelleted material, which contains the C12-preferring acyl-ACP thioesterase, may be frozen by immersion in liquid nitrogen and then stored at -70° at this stage if desired. The resulting material is referred to as the "ammonium sulfate fraction." Very little of the C12-preferring acyl-ACP thioesterase activity is lost if the pellet is frozen very rapidly.
Table 1 below reports inhibition of Bay cotyledon C12-preferring acyl-ACP thioesterase by thiol reagents observed when an ammonium sulfate fraction (see, Example 2) was assayed (see, Example 1).
After removal of dithiothreitol from an ammonium sulfate fraction preparation by passage through a small. column of G25-50 gel filtration medium (Pharmacia, Piscataway, NJ) the following assay results were observed.

In experiment [5] the test system is Cuphea C10-preferring acyl-ACP thioesterase. Nature of the experiment: C10 acyl-ACP thioesterase inhibitor studies, material from Example 9A. It counts as biochemical, Cuphea hookeriana. The conditions noted are these: preliminary inhibitor studies; for sensitivity of the thioesterase to the inhibitor (in words): concentration not given. The protocol:
Following the same general procedures as outlined in Example 1, to assay for C10 thioesterase activity, the following mixture is incubated at 30° for 10-60 min: 50µl sample to be tested in the same or similar "extraction buffer" described in Example 9A, and approximately 250pmol of [^14C]-radiolabeled acyl-ACP substrate, (usually decanoyl-ACP is labeled in the carboxylate group to 50-60µCi/µmol) in a total volume of […], for a final decanoyl-ACP concentration of 0.5-5.0µM, typically 5.0µM. The reaction is stopped by adding 0.5ml 10% (v/v) cold (4°) acetic acid and placing the reaction mixture on ice for a few minutes. The fatty acid product of the hydrolytic enzyme action is extracted away from the unhydrolyzed substrate by adding 2ml diethyl ether and mixing vigorously. The ether is transferred to 5ml scintillation fluid for scintillation counting. Additional ether extracts may be performed to recover remaining traces of product for more accurate quantitation of the activity if desired.
An acetone powder is prepared by grinding the seeds to a powder in a mortar and pestle under liquid nitrogen, and then grinding the powder in a mortar and pestle with cold acetone (at approximately -20°). The powder is collected by filtration and rinsed with cold ether to remove remaining traces of acetone. It is then extracted with 10ml of "extraction buffer" per gram of acetone powder weight (this and all subsequent steps at 0-4°) comprising 50mM KH2PO4-KOH pH 7.5, 10mM 2-mercaptoethanol. The homogenate is centrifuged at 11,000xg for 15 min at 4°, and the supernatant fraction used for subsequent purification steps after filtration through two layers of Miracloth (Calbiochem. Inc.; LaJolla, CA).
The supernatant fraction is then subjected to ammonium sulfate fractionation. The 40-60% saturation ammonium sulfate pellet (prepared as described in Example 2) is redissolved in "buffer" comprising 50mM KH2PO4-KOH pH 6.9, 10% (v/v) glycerol, and 10mM 2-mercaptoethanol, and dialyzed against this buffer to remove remaining ammonium sulfate. […]

The mark [6] stands for this setting: 0.5mM added to assay, mean of duplicates, ether layer, control without addition 4322.
[7] abbreviates: 5mM added to assay, after removal of dithiothreitol by G25-50 gel filtration, control 3776.
Setting [8] is: 5mM added to assay, after removal of dithiothreitol by G25-50 gel filtration.
The mark [9] stands for this setting: 5mM added to assay, mean of duplicates, ether layer, control without addition 4322.

Where two headings read alike, the source gives them in different places.

As to `CCCCCCCCCCCC(=O)SCCNC(=O)CCNC(=O)[C@H](O)C(C)(C)COP(=O)(O)OP(=O)(O)OC[C@H]1O[C@@H](n2cnc3c(N)ncnc32)[C@H](O)[C@@H]1OP(=O)(O)O` [C12-CoA, lauroyl coenzyme A], the “Activity on Substrate” value in experiment [1] worked out at 27 cpm; in experiment [2], 10808 cpm. Besides, the “Hydrolysis / Thioesterase Activity In Assays” value in experiment [3] (Normal Seeds (2g/cotyledon pair)) is listed as 31,268 cpm; in experiment [3] (Young Seeds (0.5g/cotyledon pair)), 29,995 cpm.
In the case of `CCN1C(=O)C=CC1=O` [N-ethylmaleimide], the “Mean Activity” value is 4320 cpm in experiment [4] (setting [6]), 269 cpm in experiment [4] (setting [7]) and 103 cpm in experiment [4] (setting [9]). The inhibition at 500 µM in experiment [4] (0.5mM added to assay) was 0%. Moreover, the figures for the inhibition at 5000 µM in experiment [4] (setting [8]) and in experiment [4] (5mM added to assay) were 93% and 98%, respectively. Further, the “sensitivity of the thioesterase to the thiol reagent (in words)” value in experiment [4] is listed as “almost completely inhibited”. In experiment [5] (5mM), the “inhibition of the thioesterase (in words)” value is reported as “completely inhibited”.
Consider `NC(=O)CI` [iodoacetamide], for which the results for the “Mean Activity” value in experiment [4] (setting [6]), in experiment [4] (setting [7]) and in experiment [4] (setting [9]) were 4180 cpm, 3851 cpm and 4047 cpm, respectively. In addition, in experiment [4] (0.5mM added to assay), the inhibition at 500 µM is 3%. For the same compound, the inhibition at 5000 µM in experiment [4] (setting [8]) was 0%; in experiment [4] (5mM added to assay) it was 6%. In experiment [4], the “sensitivity of the thioesterase to the thiol reagent (in words)” value is recorded as “insensitive”. Further, the “sensitivity of the thioesterase to the inhibitor (in words)” value in experiment [5] was “insensitive”.
Consider `O=S(=O)(F)Cc1ccccc1` [phenylmethylsulfonyl fluoride], for which the “sensitivity of the thioesterase to the inhibitor (in words)” value in experiment [5] was “insensitive”.
